# Patent US12565522B2, “Micropeptide HMMW and application thereof” (NANJING ANJI BIOTECHNOLOGY CO., LTD., priority 2019, dated 2026)
# No end group written: not given here.
# Legend:
# Assay type in all cases: cell-based, human
# Details in all cases: 24 h
# [1] = test system: A549 cells of lung cancer; assay: Matrigel transwell invasion test
# Procedure: (§1) Dilute 10 mg/mL Matrigel with culture medium at 1:3, spread it on membranes of transwell cells and dry it in the air at room temperature. Use trypsin to digest and collect SCC4 cells of head and neck cancer, SW579 cells of thyroid cancer, A549 cells of lung cancer, TE13 cells of esophageal squamous cell carcinoma, MGC803 cells of stomach cancer, MDA-MB-231 cells of breast cancer, UOK262 cells of kidney cancer, and A431 cells of skin cancer of human, which were cultured to the logarithmic phase, wash with PBS twice and re-suspend with a blank culture medium. Adjust cell concentration to 1×10^5 cells/mL. Inoculate the cells to transwell cells, 100 μL per well, and meanwhile add micropeptides HMMW I to IX at different doses to every cell. Add 0.6 mL of complete medium containing 10% FBS to the transwell cells to stimulate cell invasion, and culture in 5% CO2 at 37 DEG C. for 24 h. Discard the medium in the wells, fix with 90% alcohol at room temperature for 30 min, stain with 0.1% crystal violet at room temperature for 10 min, rinse with clear water, gently wipe off the non-invaded cells in the upper layer with a cotton swab, observe under a microscope and select four fields of view to take pictures and count. Calculate the invasion inhibition rate (IIR) of the cells according to the following formula:
# (§2) [formula] where Ntest is the number of invaded cells in the test groups (the groups at a dose of 1, 4 or 16 μM in the table), Ncontrol is the number of invaded cells in the blank control groups (the groups at a dose of 0 μM in the table). The test was repeated independently three times. Mean±SD was calculated based on the test results. Statistical t test was done. Value P was used to express statistical difference. The statistical significance of the results is a method for estimating how true the results are (the totality can be represented), *P<0.05 means significant difference, and **P<0.01 means very significant difference.
# [2] = test system: MGC803 cells of stomach cancer; assay: Matrigel transwell invasion test
# Procedure: as §1, §2
# [3] = test system: MDA-MB-231 cells of breast cancer; assay: Matrigel transwell invasion test
# Procedure: as §1, §2
# [4] = test system: SCC4 cells of head and neck cancer; assay: Matrigel transwell invasion test
# Procedure: as §1, §2
# [5] = test system: TE13 cells of esophageal squamous cell carcinoma; assay: Matrigel transwell invasion test
# Procedure: as §1, §2
# [6] = test system: UOK262 cells of kidney cancer; assay: Matrigel transwell invasion test
# Procedure: as §1, §2
# [7] = test system: A431 cells of skin cancer; assay: Matrigel transwell invasion test
# Procedure: as §1, §2
# [8] = test system: SW579 cells of thyroid cancer; assay: Matrigel transwell invasion test
# Procedure: as §1, §2
# [9] = test system: A549 cells of lung cancer; assay: transwell migration test
# Procedure: (§3) Inoculate SCC4 cells of head and neck cancer, SW579 cells of thyroid cancer, A549 cells of lung cancer, TE13 cells of esophageal squamous cell carcinoma, MGC803 cells of stomach cancer, MDA-MB-231 cells of breast cancer, UOK262 cells of kidney cancer, and A431 cells of skin cancer of human to transwell cells, 100 μL per well, and meanwhile add micropeptides HMMW I to IX at different doses to every cell. Add 0.6 mL of complete medium containing 10% FBS to the transwell cells to stimulate cell migration, and culture in 5% CO2 at 37 DEG C. for 24 h. Discard the medium in the wells, fix with 90% alcohol at room temperature for 30 min, stain with 0.1% crystal violet at room temperature for 10 min, rinse with clear water, gently wipe off the non-migrated cells in the upper layer with a cotton swab, observe under a microscope and select four fields of view to take pictures and count. Calculate the migration inhibition rate (MIR) of the cells according to the following formula: […]
# (§4) The test was repeated independently three times. Mean±SD was calculated based on the test results. Statistical t test was done. Here, “the test was repeated independently three times” means that every dose of any type of cells was tested repeatedly three times, and then the above formula was used to calculate the number of migrated cells (Mean±SD). Value P was used to express statistical difference. The statistical significance of the results is a method for estimating how true the results are (the totality can be represented), *P<0.05 means significant difference, and **P<0.01 means very significant difference.
# [10] = test system: MGC803 cells of stomach cancer; assay: transwell migration test
# Procedure: as §3, §4
# [11] = test system: MDA-MB-231 cells of breast cancer; assay: transwell migration test
# Procedure: as §3, §4
# [12] = test system: SCC4 cells of head and neck cancer; assay: transwell migration test
# Procedure: as §3, §4
# [13] = test system: TE13 cells of esophageal squamous cell carcinoma; assay: transwell migration test
# Procedure: as §3, §4
# [14] = test system: UOK262 cells of kidney cancer; assay: transwell migration test
# Procedure: as §3, §4
# [15] = test system: A431 cells of skin cancer; assay: transwell migration test
# Procedure: as §3, §4
# [16] = test system: SW579 cells of thyroid cancer; assay: transwell migration test
# Procedure: as §3, §4
substance,measurement,setting,value
MERAGVPGFSPRRSSVEAKMQSTSCSVRKSSTVTAWPAVVLLLSWGQRRGE-OH [HMMW-VIII],invasion inhibition rate,[1]; dose 1 μM,34.03%
same,invasion inhibition rate,[1]; dose 4 μM,55.20%
same,invasion inhibition rate,[1]; dose 16 μM,68.03%
same,invasion inhibition rate,[2]; dose 1 μM,26.01%
same,invasion inhibition rate,[2]; dose 4 μM,57.18%
same,invasion inhibition rate,[2]; dose 16 μM,70.60%
same,invasion inhibition rate,[3]; dose 1 μM,27.90%
same,invasion inhibition rate,[3]; dose 4 μM,45.81%
same,invasion inhibition rate,[3]; dose 16 μM,64.26%
same,invasion inhibition rate,[4]; dose 1 μM,23.71%
same,invasion inhibition rate,[4]; dose 4 μM,49.14%
same,invasion inhibition rate,[4]; dose 16 μM,76.64%
same,invasion inhibition rate,[5]; dose 1 μM,24.21%
same,invasion inhibition rate,[5]; dose 4 μM,42.31%
same,invasion inhibition rate,[5]; dose 16 μM,61.51%
same,invasion inhibition rate,[6]; dose 1 μM,35.27%
same,invasion inhibition rate,[6]; dose 4 μM,54.14%
same,invasion inhibition rate,[6]; dose 16 μM,68.21%
same,invasion inhibition rate,[7]; dose 1 μM,34.50%
same,invasion inhibition rate,[7]; dose 4 μM,55.11%
same,invasion inhibition rate,[7]; dose 16 μM,69.43%
same,invasion inhibition rate,[8]; dose 1 μM,19.61%
same,invasion inhibition rate,[8]; dose 4 μM,43.56%
same,invasion inhibition rate,[8]; dose 16 μM,64.79%
same,migration inhibition rate,[9]; dose 1 μM,32.06%
same,migration inhibition rate,[9]; dose 4 μM,51.90%
same,migration inhibition rate,[9]; dose 16 μM,73.40%
same,migration inhibition rate,[10]; dose 1 μM,24.60%
same,migration inhibition rate,[10]; dose 4 μM,53.43%
same,migration inhibition rate,[10]; dose 16 μM,73.81%
same,migration inhibition rate,[11]; dose 1 μM,26.14%
same,migration inhibition rate,[11]; dose 4 μM,50.24%
same,migration inhibition rate,[11]; dose 16 μM,73.32%
same,migration inhibition rate,[12]; dose 1 μM,17.80%
same,migration inhibition rate,[12]; dose 4 μM,42.92%
same,migration inhibition rate,[12]; dose 16 μM,72.35%
same,migration inhibition rate,[13]; dose 1 μM,23.73%
same,migration inhibition rate,[13]; dose 4 μM,42.23%
same,migration inhibition rate,[13]; dose 16 μM,63.31%
same,migration inhibition rate,[14]; dose 1 μM,18.29%
same,migration inhibition rate,[14]; dose 4 μM,43.48%
same,migration inhibition rate,[14]; dose 16 μM,71.45%
same,migration inhibition rate,[15]; dose 1 μM,33.10%
same,migration inhibition rate,[15]; dose 4 μM,53.37%
same,migration inhibition rate,[15]; dose 16 μM,71.20%
same,migration inhibition rate,[16]; dose 1 μM,18.81%
same,migration inhibition rate,[16]; dose 4 μM,52.05%
same,migration inhibition rate,[16]; dose 16 μM,70.90%
MERAGVPGFSPRRSSVEAKMQSTSCSVRKSSTVTAWPAVVLLLSWGQRRGG-OH [HMMW-I],invasion inhibition rate,[1]; dose 1 μM,31.23%
same,invasion inhibition rate,[1]; dose 4 μM,51.32%
same,invasion inhibition rate,[1]; dose 16 μM,64.08%
same,invasion inhibition rate,[2]; dose 1 μM,26.12%
same,invasion inhibition rate,[2]; dose 4 μM,50.08%
same,invasion inhibition rate,[2]; dose 16 μM,68.62%
same,invasion inhibition rate,[3]; dose 1 μM,27.97%
same,invasion inhibition rate,[3]; dose 4 μM,48.95%
same,invasion inhibition rate,[3]; dose 16 μM,70.49%
same,invasion inhibition rate,[4]; dose 1 μM,20.75%
same,invasion inhibition rate,[4]; dose 4 μM,46.24%
same,invasion inhibition rate,[4]; dose 16 μM,74.84%
same,invasion inhibition rate,[5]; dose 1 μM,20.43%
same,invasion inhibition rate,[5]; dose 4 μM,42.86%
same,invasion inhibition rate,[5]; dose 16 μM,66.51%
same,invasion inhibition rate,[6]; dose 1 μM,33.80%
same,invasion inhibition rate,[6]; dose 4 μM,53.12%
same,invasion inhibition rate,[6]; dose 16 μM,66.67%
same,invasion inhibition rate,[7]; dose 1 μM,32.74%
same,invasion inhibition rate,[7]; dose 4 μM,51.22%
same,invasion inhibition rate,[7]; dose 16 μM,69.37%
same,invasion inhibition rate,[8]; dose 1 μM,19.63%
same,invasion inhibition rate,[8]; dose 4 μM,44.76%
same,invasion inhibition rate,[8]; dose 16 μM,64.89%
same,migration inhibition rate,[9]; dose 1 μM,35.00%
same,migration inhibition rate,[9]; dose 4 μM,53.95%
same,migration inhibition rate,[9]; dose 16 μM,73.46%
same,migration inhibition rate,[10]; dose 1 μM,27.61%
same,migration inhibition rate,[10]; dose 4 μM,53.45%
same,migration inhibition rate,[10]; dose 16 μM,76.80%
same,migration inhibition rate,[11]; dose 1 μM,28.06%
same,migration inhibition rate,[11]; dose 4 μM,50.34%
same,migration inhibition rate,[11]; dose 16 μM,75.38%
same,migration inhibition rate,[12]; dose 1 μM,17.85%
same,migration inhibition rate,[12]; dose 4 μM,42.97%
same,migration inhibition rate,[12]; dose 16 μM,77.00%
same,migration inhibition rate,[13]; dose 1 μM,23.76%
same,migration inhibition rate,[13]; dose 4 μM,42.29%
same,migration inhibition rate,[13]; dose 16 μM,68.32%
same,migration inhibition rate,[14]; dose 1 μM,15.39%
same,migration inhibition rate,[14]; dose 4 μM,42.38%
same,migration inhibition rate,[14]; dose 16 μM,71.47%
same,migration inhibition rate,[15]; dose 1 μM,33.19%
same,migration inhibition rate,[15]; dose 4 μM,55.17%
same,migration inhibition rate,[15]; dose 16 μM,73.22%
same,migration inhibition rate,[16]; dose 1 μM,19.81%
same,migration inhibition rate,[16]; dose 4 μM,51.03%
same,migration inhibition rate,[16]; dose 16 μM,70.98%
MGRAGVPGFSPRRSSVEAKMQSTSCSVRKSSTVTAWPAVVLLLSWGQRRGG-OH [HMMW-IX],invasion inhibition rate,[1]; dose 1 μM,30.15%
same,invasion inhibition rate,[1]; dose 4 μM,60.32%
same,invasion inhibition rate,[1]; dose 16 μM,70.35%
same,invasion inhibition rate,[2]; dose 1 μM,26.42%
same,invasion inhibition rate,[2]; dose 4 μM,57.19%
same,invasion inhibition rate,[2]; dose 16 μM,68.35%
same,invasion inhibition rate,[3]; dose 1 μM,27.83%
same,invasion inhibition rate,[3]; dose 4 μM,49.57%
same,invasion inhibition rate,[3]; dose 16 μM,75.43%
same,invasion inhibition rate,[4]; dose 1 μM,24.83%
same,invasion inhibition rate,[4]; dose 4 μM,48.82%
same,invasion inhibition rate,[4]; dose 16 μM,75.16%
same,invasion inhibition rate,[5]; dose 1 μM,21.25%
same,invasion inhibition rate,[5]; dose 4 μM,40.39%
same,invasion inhibition rate,[5]; dose 16 μM,65.47%
same,invasion inhibition rate,[6]; dose 1 μM,39.15%
same,invasion inhibition rate,[6]; dose 4 μM,59.28%
same,invasion inhibition rate,[6]; dose 16 μM,69.51%
same,invasion inhibition rate,[7]; dose 1 μM,34.83%
same,invasion inhibition rate,[7]; dose 4 μM,54.35%
same,invasion inhibition rate,[7]; dose 16 μM,74.16%
same,invasion inhibition rate,[8]; dose 1 μM,25.21%
same,invasion inhibition rate,[8]; dose 4 μM,48.60%
same,invasion inhibition rate,[8]; dose 16 μM,62.48%
same,migration inhibition rate,[9]; dose 1 μM,36.00%
same,migration inhibition rate,[9]; dose 4 μM,52.95%
same,migration inhibition rate,[9]; dose 16 μM,71.46%
same,migration inhibition rate,[10]; dose 1 μM,25.61%
same,migration inhibition rate,[10]; dose 4 μM,51.45%
same,migration inhibition rate,[10]; dose 16 μM,74.80%
same,migration inhibition rate,[11]; dose 1 μM,26.06%
same,migration inhibition rate,[11]; dose 4 μM,52.34%
same,migration inhibition rate,[11]; dose 16 μM,73.38%
same,migration inhibition rate,[12]; dose 1 μM,18.81%
same,migration inhibition rate,[12]; dose 4 μM,43.97%
same,migration inhibition rate,[12]; dose 16 μM,74.00%
same,migration inhibition rate,[13]; dose 1 μM,21.76%
same,migration inhibition rate,[13]; dose 4 μM,40.29%
same,migration inhibition rate,[13]; dose 16 μM,65.32%
same,migration inhibition rate,[14]; dose 1 μM,17.39%
same,migration inhibition rate,[14]; dose 4 μM,43.38%
same,migration inhibition rate,[14]; dose 16 μM,70.47%
same,migration inhibition rate,[15]; dose 1 μM,33.19%
same,migration inhibition rate,[15]; dose 4 μM,55.17%
same,migration inhibition rate,[15]; dose 16 μM,73.22%
same,migration inhibition rate,[16]; dose 1 μM,17.81%
same,migration inhibition rate,[16]; dose 4 μM,50.03%
same,migration inhibition rate,[16]; dose 16 μM,71.98%
